Measurements reported in patent US20160169850A1, “SENSOR MOLECULE” (University of Malta, priority 2014, published 2016).
Like-named read-outs stand apart in the source and are kept apart here.

Experiments:
[1] = CH3CN; known sensor; cited from earlier work
[2] = CH3CN; known sensor; cited from earlier work; remark: listed apart in the source
[3] = for Fluorescent Output: 1:1 MeOH:H2O
[4] = 1:1 methanol:water, excess H^+ (pH 3), emission at 525 nm

Compound | Fluorescent Enhancement (FE) [1] | Quantum Yield (ΦF) [2] | visual output under UV lamp ([3]; 365 nm light, high acid and Fe(III), 1:1 methanol/water) | Fluorescent Output ([3]; Condition A: no inputs) | Fluorescent Output ([3]; Condition D: Fe(III) and H^+ both) | fluorescence enhancement ([3]; both inputs versus no input or one input, 1:1 methanol:water) | Output emission, logic level (Condition A: H^+ low, Fe^3+ low) | Output emission, logic level (Condition B: 0.2 mM H^+, Fe^3+ low) | Output emission, logic level (Condition C: H^+ low, 10 μM Fe(III)) | Output emission, logic level (Condition D: 0.2 mM H^+ and 10 μM Fe(III)) | −log [Fe^3+] at equivalence point [4]
CN(CC1=CSC(=C2SC=CS2)S1)Cc1c2ccccc2cc2ccccc12 [Compound 2] | 5 | 0.015 | – | – | – | – | – | – | – | – | –
N-ferrocenyl-4-methylpiperazine-1,8-naphthalimide [Compound 5] | – | – | bright green fluorescent | Low | High | 19 fold | low (Output is considered high when >0.050) | low (Output is considered high when >0.050) | low (Output is considered high when >0.050) | high (Output is considered high when >0.050) | 5.1
